Tested on: P12-Ichikawa
Experiment: cell viability relative to DMSO control; higher = less cytotoxic
Details: 48 h
Procedure, shortened: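 Library compounds in DMSO were pin-dosed into 1536-well plates (5 μl) holding NOMO1 or SEM (500 cells/well) or P12-Ichikawa (1000 cells/well) leukemia cells, across an 11-point threefold series of 47 μM to 0.79 nM. Each cell line had been adapted for at least four passages in each medium. CellTiter-Glo One luminescence was read after 48 h at 37°C. Viability is the per-plate percentage relative to DMSO wells, with cell-free wells as background.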

[1] = HPLM + 10% dialyzed FBS, 0.000781 µM
[2] = HPLM + 10% dialyzed FBS, 0.00234 µM
[3] = HPLM + 10% dialyzed FBS, 0.00702 µM
[4] = HPLM + 10% dialyzed FBS, 0.0211 µM
[5] = HPLM + 10% dialyzed FBS, 0.0632 µM
[6] = HPLM + 10% dialyzed FBS, 0.19 µM
[7] = HPLM + 10% dialyzed FBS, 0.569 µM
[8] = HPLM + 10% dialyzed FBS, 1.71 µM
[9] = HPLM + 10% dialyzed FBS, 5.12 µM
[10] = HPLM + 10% dialyzed FBS, 15.4 µM
[11] = HPLM + 10% dialyzed FBS, 46.1 µM
[12] = RPMI 5 mM glucose + 10% FBS, 0.000781 µM
[13] = RPMI 5 mM glucose + 10% FBS, 0.00234 µM
[14] = RPMI 5 mM glucose + 10% FBS, 0.00702 µM
[15] = RPMI 5 mM glucose + 10% FBS, 0.0211 µM
[16] = RPMI 5 mM glucose + 10% FBS, 0.0632 µM
[17] = RPMI 5 mM glucose + 10% FBS, 0.19 µM
[18] = RPMI 5 mM glucose + 10% FBS, 0.569 µM
[19] = RPMI 5 mM glucose + 10% FBS, 1.71 µM
[20] = RPMI 5 mM glucose + 10% FBS, 5.12 µM
[21] = RPMI 5 mM glucose + 10% FBS, 15.4 µM
[22] = RPMI 5 mM glucose + 10% FBS, 46.1 µM
[23] = RPMI 5 mM glucose + 10% dialyzed FBS, 0.000781 µM
[24] = RPMI 5 mM glucose + 10% dialyzed FBS, 0.00234 µM
[25] = RPMI 5 mM glucose + 10% dialyzed FBS, 0.00702 µM
[26] = RPMI 5 mM glucose + 10% dialyzed FBS, 0.0211 µM
[27] = RPMI 5 mM glucose + 10% dialyzed FBS, 0.0632 µM
[28] = RPMI 5 mM glucose + 10% dialyzed FBS, 0.19 µM
[29] = RPMI 5 mM glucose + 10% dialyzed FBS, 0.569 µM
[30] = RPMI 5 mM glucose + 10% dialyzed FBS, 1.71 µM
[31] = RPMI 5 mM glucose + 10% dialyzed FBS, 5.12 µM
[32] = RPMI 5 mM glucose + 10% dialyzed FBS, 15.4 µM
[33] = RPMI 5 mM glucose + 10% dialyzed FBS, 46.1 µM

Row | Compound | cell viability [1] | cell viability [2] | cell viability [3] | cell viability [4] | cell viability [5] | cell viability [6] | cell viability [7] | cell viability [8] | cell viability [9] | cell viability [10] | cell viability [11] | cell viability [12] | cell viability [13] | cell viability [14] | cell viability [15] | cell viability [16] | cell viability [17] | cell viability [18] | cell viability [19] | cell viability [20] | cell viability [21] | cell viability [22] | cell viability [23] | cell viability [24] | cell viability [25] | cell viability [26] | cell viability [27] | cell viability [28] | cell viability [29] | cell viability [30] | cell viability [31] | cell viability [32] | cell viability [33]
1 | CC(=O)Oc1ccccc1C(=O)O | 99.8% | 96.4% | 102% | 93.9% | 101% | 101% | 96.6% | 95.5% | 90.3% | 96.4% | 101% | 106% | 101% | 104% | 98.6% | 101% | 86.5% | 87.3% | 105% | 95.9% | 96.4% | 99.3% | 97.2% | 97.5% | 98.7% | 105% | 101% | 93.6% | 89.2% | 99.6% | 93.2% | 104% | 103%
2 | Cl.Cl.Cl.O[C@@H](COc1cccc2ncccc12)CN1CCN([C@@H]2c3ccccc3[C@@H]3[C@H](c4ccccc42)C3(F)F)CC1 | 94.8% | 94.5% | 88.4% | 89.7% | 90.5% | 92.9% | 84% | 83.8% | 81.8% | 84.5% | 79.3% | 89.1% | 79.1% | 77.9% | 84% | 88.5% | 87% | 71% | 81.6% | 78.4% | 79.8% | 84.6% | 91.8% | 84.3% | 86.3% | 86.7% | 81.6% | 84.6% | 84.4% | 77.8% | 78.6% | 78.4% | 76.3%
3 | COC1=CC=CC2=C1C(=NC(=N2)C3=CC=CS3)NN4C(=O)\C=C(C)/C4=O | 94.4% | 98.3% | 104% | 92.5% | 93.2% | 86.5% | 62.2% | 56.8% | 19.7% | 4.94% | 1.01% | 90.6% | 93.7% | 92.2% | 92.9% | 84.7% | 75.4% | 62.8% | 59.7% | 21.3% | 4.06% | 0.767% | 87% | 90.7% | 94.6% | 86.7% | 87.8% | 74.1% | 62.3% | 54.9% | 23.7% | 3.09% | 0.857%
4 | CC(=O)N(C)c1cccc(-c2ccnc3c(C(=O)c4cccs4)cnn23)c1 | 103% | 115% | 109% | 101% | 108% | 110% | 99.8% | 120% | 103% | 99.3% | 94.5% | 106% | 96.8% | 88.5% | 80.9% | 102% | 101% | 107% | 90.5% | 95.8% | 88.1% | 90.2% | 105% | 98.7% | 105% | 88% | 93.9% | 103% | 107% | 89.7% | 95% | 90.3% | 92%
5 | CC(C)n1nc(-c2cc3cc(O)ccc3[nH]2)c2c(N)ncnc21 | 109% | 107% | 112% | 106% | 99.4% | 90% | 73% | 72.7% | 64.9% | 47.4% | 36.8% | 100% | 109% | 110% | 95.3% | 92.8% | 79.5% | 66.5% | 56.9% | 52.5% | 35.4% | 17.5% | 105% | 116% | 111% | 118% | 108% | 86.4% | 73.6% | 66.6% | 48.6% | 30.8% | 20.5%
6 | CCCCCOC(=O)NC\1=N\C(=O)N(\C=C1F)[C@@H]2O[C@H](C)[C@@H](O)[C@H]2O | 107% | 91.7% | 101% | 103% | 97.1% | 103% | 93.8% | 96.4% | 94.2% | 89.9% | 86.7% | 96.7% | 99.4% | 97.4% | 93.7% | 101% | 91.5% | 92.6% | 93.3% | 89.6% | 77.3% | 84% | 101% | 96.1% | 96.2% | 94.8% | 100% | 93% | 91.2% | 87.2% | 90.1% | 83.8% | 83.8%
7 | O=C(NCC[S+](=O)([O-])c1ccc(C(F)(F)F)cn1)c1ccc(Cl)cc1 | 115% | 116% | 121% | 115% | 118% | 117% | 115% | 117% | 110% | 112% | 108% | 117% | 124% | 118% | 127% | 117% | 115% | 111% | 107% | 119% | 107% | 109% | 112% | 126% | 121% | 121% | 120% | 116% | 115% | 103% | 115% | 102% | 102%
8 | CCC1(C)CC(=O)NC1=O (stereo unspecified) | 101% | 103% | 104% | 104% | 108% | 116% | 100% | 102% | 94.9% | 96.7% | 94.7% | 99.4% | 105% | 115% | 101% | 111% | 105% | 102% | 99.3% | 106% | 92% | 87.4% | 101% | 101% | 101% | 97.3% | 104% | 104% | 102% | 96.3% | 96.3% | 97.1% | 88.9%
9 | CN(C)c1ccc(O)c2c1C[C@H]1C[C@H]3[C@H](N(C)C)C(O)=C(C(N)=O)C(=O)[C@@]3(O)C(O)=C1C2=O | 109% | 106% | 105% | 97.4% | 107% | 110% | 103% | 99.9% | 104% | 91.2% | 106% | 113% | 110% | 101% | 100% | 112% | 103% | 101% | 95.2% | 88.5% | 94.9% | 93.9% | 110% | 116% | 112% | 118% | 118% | 95.6% | 86.2% | 81.7% | 82.5% | 92.6% | 98.8%
10 | NC[C@H]1CC[C@H](C(=O)O)CC1 |  |  |  |  |  |  |  |  |  |  |  | 15% | 141% | 125% | 134% | 139% | 123% | 136% | 129% | 132% | 128% | 121% |  |  |  |  |  |  |  |  |  |  | 
11 | CC1=NN(c2ccc(C)c(C)c2)C(=O)/C1=N/Nc1cccc(-c2cccc(C(=O)O)c2)c1O | 120% | 120% | 129% | 124% | 116% | 127% | 121% | 118% | 112% | 91.1% | 68.1% |  |  |  |  |  |  |  |  |  |  |  |  |  |  |  |  |  |  |  |  |  | 
12 | CC1=C(/C=C/C(C)=C/C=C/C(C)=C/C=C/C=C(C)/C=C/C=C(C)/C=C/C2=C(C)CCCC2(C)C)C(C)(C)CCC1 | 112% | 112% | 109% | 110% | 109% | 106% | 108% | 107% | 112% | 95.1% | 99.3% | 111% | 119% | 110% | 111% | 116% | 105% | 111% | 109% | 108% | 95.8% | 95.4% | 117% | 113% | 118% | 108% | 109% | 106% | 107% | 106% | 106% | 103% | 85.7%
13 | Cc1c(CN2CCN(C(=O)[C@H](C)O)CC2)sc2c(N3CCOCC3)nc(-c3cnc(N)nc3)nc12 | 96.6% | 99.8% | 99.1% | 103% | 94.9% | 99.8% | 75% | 69.3% | 63.8% | 60.8% | 59.8% | 95.6% | 94% | 90.7% | 86.8% | 75.1% | 79.5% | 64.4% | 52.9% | 49.4% | 46.2% | 43.5% | 93.5% | 94.8% | 97.4% | 98.5% | 81.6% | 77.8% | 63.1% | 54.5% | 41.9% | 46% | 42.6%
14 | CC\1=C(C(\N=C(/N1)C2=CC(=NC=C2)Cl)C3=C(F)C=C(Cl)C=C3)/C(=O)NC4=C(F)C=C5[NH]N=CC5=C4 (stereo unspecified) | 103% | 103% | 109% | 112% | 111% | 107% | 112% | 115% | 106% | 77.5% | 4.67% | 87.6% | 114% | 118% | 104% | 102% | 113% | 110% | 113% | 110% | 71.6% | 8.24% | 105% | 121% | 110% | 116% | 118% | 118% | 121% | 124% | 112% | 82.9% | 14.7%
15 | CC(C)OC(=O)OCOP(=O)(CO[C@H](C)Cn1cnc2c(N)ncnc21)OCOC(=O)OC(C)C.O=C(O)C=CC(=O)O | 110% | 120% | 73.1% | 125% | 127% | 125% | 125% | 128% | 129% | 126% | 106% | 105% | 132% | 70.9% | 122% | 124% | 122% | 135% | 129% | 129% | 115% | 4.8% | 97.6% | 109% | 85.9% | 115% | 122% | 124% | 124% | 124% | 128% | 121% | 95.2%
